“Also recorded” adds a separate entry of the source. Residues, ends and D or L forms follow the SMILES beside them. *: point of attachment. Myristoyl = CCCCCCCCCCCCCC(=O)*
Tests used:
[1] = test system: S. aureus ATCC 25923; assay: Pneumonia (lung infection) model; format: in vivo, BALB/c mice; conditions: intranasal 40 μL, 1 μg/μL, once a day for 3 days; for Pathological scores of the lung sections: n = 5; for Bacterial CFU in lung homogenate: reduced vs PBS group P < 0.01, n = 5
Description: A pneumonia model in vivo was established as previously reported, with minor modification (Cortés et al., [2002]; Aoki et al., [2009]; Shi et al., [2018]). A total of 120 mice were randomly divided into two experimental models, one was intranasal inoculation of S. aureus ATCC 25923 (8.3 × 10^9 CFU/mL, 50 μL), and the other was intranasal inoculation of P. aeruginosa GIM 1.551 (4.5 × 10^10 CFU/mL, 50 μL). In the S. aureus ATCC 25923 model, 60 mice were divided into the following six groups of 10 mice each: no infection and treatment was used as a blank control, those with intranasal administration of PBS (40 μL) as the negative control group, those administered with benzylpenicillin potassium (40 μL, 1 μg/μL) as the positive control group, and the remaining three corresponded to Myr-36PW (40 μL, 1 μg/μL), PMAP-36PW (40 μL, 1 μg/μL), and PMAP-36 groups (40 μL, 1 μg/μL). The procedure for P. aeruginosa GIM 1.551 model is the same as for S. aureus ATCC 25923 model, except for the use of ampicillin sodium as the positive control. After 4 h post-inoculation, treatment was initiated, once a day for 3 days. The mice were sacrificed 24 h after the treatment. Changes in the appearance of lung tissues were observed, and lung tissues were removed aseptically from the mice. Half of the removed lung tissues were gently fixed in buffered formaldehyde solution for histopathological assessment by hematoxylin and eosin (H&E) staining. Pathological changes were scored to provide individual therapeutic status as described previously (Lei et al., [2018]). The remaining lung tissues were added with 1 mL of PBS, homogenized, and serially diluted. Bacterial CFU counts were determined.
Figure 8 Therapeutic effect for pneumonia by Myr-36PW in vivo. Mice were injected with S. aureus ATCC 25923 or P. aeruginosa GIM 1.551 to form pneumonia, and lungs (n = 5) in each group were collected on day 4 after intranasal bacterial inoculation. (A) Morphological changes of lung tissues. (B) Representative histopathological images of processed lung section with hematoxylin and eosin (H&E) staining. Images are presented at a magnification of 20×. a: inflammatory cell infiltration. b: the alveolar wall is thickened. c: alveolar wall congestion or alveolar hemorrhage. (C,D) Pathological scores of the lung sections. Scoring standard: 1 indicated no pathology, 2 indicated local pulmonary congestion and inflammatory cell infiltration, 3 indicated pulmonary congestion and a large number of inflammatory cell infiltration, affecting <20% of the section, 4 indicated pulmonary congestion and a large number of inflammatory cell infiltration, affecting 20–50% of the section, and 5 indicated pulmonary congestion and a large number of inflammatory cell infiltration, affecting >50% of the section. (E,F) Bacterial CFU in lung homogenate. BP is benzylpenicillin potassium, AS is ampicillin sodium. Data represent the mean ± SD of five individual experiments.

[2] = test system: S. typhimurium SL 1344; format: cell-based, Salmonella typhimurium
Description: (§1) The MICs of Myr-36PW in vitro were measured through microdilution in accordance with the Clinical and Laboratory Standards Institute (CLSI, [2020]). The bacterial cells were cultured for 12 h at 37°C in the appropriate medium and then diluted to 1 × 10^6 CFU/mL. Equal volumes (100 μL) of bacterial cell suspension and two-fold serially diluted different concentrations peptides (0.0039–256 μg/mL) were added to each well of the sterile 96-well plate. The samples were incubated for 18 h at 37°C. After incubation, the MICs of the peptides were determined by evaluating the growth based on the OD600 of the cultures.

[3] = test system: L. monocytogenes CICC 21634; format: cell-based, Listeria monocytogenes
Description: as §1

[4] = test system: S. aureus ATCC 25923; format: cell-based, Staphylococcus aureus
Description: as §1

[5] = test system: S. aureus ATCC 25923; assay: Subcutaneous abscess model; format: in vivo, BALB/c mice; conditions: injected 20 μL, 1 μg/μL, once a day for 3 days; for Bacterial CFU in abscess area: n = 5
Description: A subcutaneous abscess model in vivo was established as previously reported (Zhao et al., [2019]). The mouse dorsal region with 3.0 cm diameter was treated with hair pusher. A total of 120 mice were randomly divided into two experimental models, one was challenged with S. aureus ATCC 25923 (2.5 × 10^8 CFU/mL, 60 μL), and the other was challenged with P. aeruginosa GIM 1.551 (3.0 × 10^8 CFU/mL, 60 μL). In the S. aureus ATCC 25923 model, 60 mice were divided into six groups of 10 members. The mice with no infection and treatment was used as a blank control, those directly injected with PBS (20 μL) as the negative control group, those injected with benzylpenicillin potassium (20 μL, 1 μg/μL) as the positive control group, and the remaining three groups as the treatment groups injected with Myr-36PW (20 μL, 1 μg/μL), PMAP-36PW (20 μL, 1 μg/μL), and PMAP-36 (20 μL, 1 μg/μL). The procedure in P. aeruginosa GIM 1.551 model is the same as that in S. aureus ATCC 25923 model, except for the use of ampicillin sodium as a positive control. Treatment once a day for 3 days was initiated when the mice developed prominent pustules on their backs. A day after the treatment, the size of the abscess was observed, and its tissues were excised, homogenized, and serially diluted. Bacteria CFU counts were calculated.
Figure 10 Treatment efficacy of subcutaneous abscess by Myr-36PW in vivo. Mice were injected with S. aureus ATCC 25923 or P. aeruginosa GIM 1.551 to develop a subcutaneous abscess before treatment. (A) Changes in the abscess area of mice after 3 days treatment. (B,C) Quantitative analysis of bacterial CFU in abscess area that received 3 days treatment under various experimental conditions. The number of CFU in each treatment group was normalized by using the CFU of the experimental group divided by the CFU of the PBS group (100%). BP is benzylpenicillin potassium, AS is ampicillin sodium. Data represent the mean ± SD of five individual experiments. *P < 0.05 and **P < 0.01, compared with PBS. ^#P < 0.05 and ^##P < 0.01, compared with PMAP-36PW.

[6] = test system: P. aeruginosa GIM 1.551; format: cell-based, Pseudomonas aeruginosa
Description: as §1

| SMILES | Lung histopathology (H&E) [1] | Pathological scores of the lung sections [1] | Bacterial CFU in lung homogenate [1] | MICs of different classes of antibiotics ([2]; S. typhimurium SL 1344, * indicates resistant (CLSI, 2020)) [µg/mL] | MICs of different classes of antibiotics ([3]; L. monocytogenes CICC 21634, * indicates resistant (CLSI, 2020)) [µg/mL] | MICs of different classes of antibiotics ([4]; S. aureus ATCC 25923, * indicates resistant (CLSI, 2020)) [µg/mL] | Abscess area [5] | Bacterial CFU in abscess area [5] | MICs of different classes of antibiotics ([6]; P. aeruginosa GIM 1.551, * indicates resistant (CLSI, 2020)) [µg/mL] | MICs ([2]; SL 1344, 18 h) [µg/mL] | MICs ([3]; CICC 21634, 18 h) [µg/mL] | MICs ([4]; ATCC 25923, 18 h) [µg/mL] | MICs ([6]; GIM 1.551, 18 h) [µg/mL] |
| --- | --- | --- | --- | --- | --- | --- | --- | --- | --- | --- | --- | --- | --- |
| CC1(C)S[C@@H]2[C@H](NC(=O)Cc3ccccc3)C(=O)N2[C@H]1C(=O)O [Benzylpenicillin potassium] | a complete alveolar structure, reduced blood stasis, and large reduction in inflammatory cells | lower scores than PMAP-36PW group (P < 0.05) | reduced; also recorded: lower than that for PMAP-36PW group (P < 0.05) | 16 | 64 | <0.25 | significantly reduced the abscess area and effectively suppressed its growth | lower than that in PBS group (P < 0.01) | 64 |  |  |  |  |
| CCCCCCCCCCCCCC(=O)NCC(=O)NCC(=O)N[C@@H](CCCNC(=N)N)C(=O)N[C@@H](Cc1ccccc1)C(=O)N[C@@H](CCCNC(=N)N)C(=O)N[C@@H](CCCNC(=N)N)C(=O)N[C@@H](CC(C)C)C(=O)N[C@@H](CCCNC(=N)N)C(=O)N[C@@H](CCCCN)C(=O)N[C@@H](CCCCN)C(=O)N[C@H](C(=O)N[C@@H](CCCNC(=N)N)C(=O)N[C@@H](CCCCN)C(=O)N[C@@H](CCCNC(=N)N)C(=O)N[C@@H](CC(C)C)C(=O)N[C@@H](CCCCN)C(=O)N[C@@H](CCCCN)C(=O)N[C@H](C(=O)NCC(=O)N[C@@H](CCCCN)C(=O)N[C@H](C(=O)N[C@@H](CC(C)C)C(=O)N[C@@H](CCCCN)C(=O)N[C@@H](Cc1c[nH]c2ccccc12)C(=O)N[C@H](C(=O)N[C@@H](Cc1c[nH]c2ccccc12)C(=O)N[C@@H](Cc1c[nH]c2ccccc12)C(=O)N[C@H](C(=O)N[C@H](C(=O)NCC(=O)N[C@@H](CO)C(=O)N[C@H](C(=O)N1CCC[C@H]1C(=O)N[C@@H](CC(C)C)C(=O)NCC(=O)N[C@@H](CS)C(=O)NCC(=O)O)[C@@H](C)CC)C(C)C)[C@@H](C)CC)[C@@H](C)CC)C(C)C)[C@@H](C)CC)[C@@H](C)O [Myr-36PW] (Myristoyl-GGRFRRLRKKTRKRLKKIGKVLKWIWWIVGSIPLGCG-OH; C-terminus assumed) | a complete alveolar structure, reduced blood stasis, and large reduction in inflammatory cells | lower scores than PMAP-36PW group (P < 0.05) | reduced; also recorded: lower than that for PMAP-36PW group (P < 0.05) |  |  |  | significantly reduced the abscess area and effectively suppressed its growth | lower than that in PBS group (P < 0.01) |  | 8 | 0.5 | 0.0020 | 0.25 |

Source: PMC7481357, “N-terminal Myristoylation Enhanced the Antimicrobial Activity of Antimicrobial Peptide PMAP-36PW” (Frontiers in Cellular and Infection Microbiology, 2020)
